The results in this text go back to US20240101570A1 (AMGEN INC., priority 2020, published 2024).

Some results are limits rather than exact numbers.

By IC50 is commonly meant the concentration that inhibits the measured activity by half.

One assay has as its system HCT116 WT cells. In words: HCT116 WT cell proliferation / viability (CellTiter-Glo, 6 days). Format: cell-based. The settings on record: Homo sapiens, HCT-116, 144 h, HCT116 WT cells, 6 days, CellTiter-Glo; read-out: HCT-116 WT IC50. In outline: (§1)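 IC50 values derive from sigmoidal dose-response fits, some with Hill slope fixed at −1 and top constrained to 100%, others from 4-parameter logistic models. They reflect CellTiter-Glo viability after 6 days of compound exposure at up to 10 or 50 μM.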
In general terms: Cellular ATP, detected with luciferase, serves as a proxy for viable cell number.

The subject of the next assay is HCT116 MTAP null cells. Description: HCT116 MTAP null cell proliferation / viability (CellTiter-Glo, 6 days). The class given is cell-based. The settings on record: for IC50: HCT116-MTAP null, 144 h, HCT116 MTAP null cells, 6 days, CellTiter-Glo, read-out: HCT-116 MTAP null IC50; for potency of enantiomer relative to the other enantiomer, measured by IC50 in HCT116 MTAP null cell viability assay: comparison of the two SFC-separated enantiomers. In outline:
as §1

For `CC(C)N(Cc1ccc(C2CC2)nc1)C(=O)c1ccc2nc(N)c3c(c2c1)COC3` [Example 302, 4-amino-N-((6-cyclopropyl-3-pyridinyl)methyl)-N-(2-propanyl)-1,3-dihydrofuro[3,4-c]quinoline-8-carboxamide], the IC50 in the assay on HCT116 WT cells was 17300 nM; in the assay on HCT116 MTAP null cells, 900 nM.

As for `CN(Cc1ccc(C(F)(F)C(F)(F)F)cc1)C(=O)c1ccc2nc(N)c3cnn(C)c3c2c1` [Example 561, 4-amino-N,1-dimethyl-N-(4-(pentafluoroethyl)benzyl)-1H-pyrazolo[4,3-c]quinoline-8-carboxamide], the IC50 stood at 5330 nM in the assay on HCT116 WT cells and 89 nM with HCT116 MTAP null cells.

Turning to `CCOc1ccc(CN(CC(C)C)C(=O)c2ccc3nc(N)c4c(c3c2)COC4)nn1` [Example 642, 4-amino-N-((6-ethoxy-3-pyridazinyl)methyl)-N-(2-methylpropyl)-1,3-dihydrofuro[3,4-c]quinoline-8-carboxamide], the IC50 in the assay on HCT116 WT cells worked out at 1300 nM; with HCT116 MTAP null cells, 41 nM.

On to `COc1ccc(CN(C(=O)c2ccc3nc(N)c4c(c3c2)CCC4)[C@@H](C)c2ncccn2)nn1` (single isomer, unassigned) [Example 647], for which, in the assay on HCT116 WT cells, the IC50 is 4200 nM. Besides, in the assay on HCT116 MTAP null cells, the IC50 was determined as 673 nM and the “potency of enantiomer relative to the other enantiomer, measured by IC50 in HCT116 MTAP null cell viability assay” value is on record as “less potent”.

As for `Nc1nc2cc(F)c(C(=O)N(Cc3ccc(OC(F)F)nn3)C3CCC3)cc2c2c1COC2` [Example 509, 4-amino-N-cyclobutyl-N-((6-(difluoromethoxy)-3-pyridazinyl)methyl)-7-fluoro-1,3-dihydrofuro[3,4-c]quinoline-8-carboxamide], the IC50 in the assay on HCT116 WT cells was 878 nM; with HCT116 MTAP null cells, 40 nM.

As for `CC[C@H](c1cncnc1)N(Cc1ccc(S(F)(F)(F)(F)F)cc1)C(=O)c1cc2c(cn1)nc(N)c1cnn(C)c12` (single isomer, unassigned) [Example 871], the IC50 with HCT116 WT cells was 78 nM; with HCT116 MTAP null cells it was 25 nM.

With `C[C@@H](c1ncc(C(F)(F)F)cc1F)N(C)C(=O)c1cc2c(cc1F)nc(N)c1cnn(C)c12` (single isomer, unassigned) [Example 864], the IC50 came out at 22700 nM with HCT116 WT cells and 618 nM in the assay with HCT116 MTAP null cells.

Turning to `N#Cc1ccc(CN(CC2CC2)C(=O)c2ccc3nc(N)c4c(c3c2)COC4)nc1` [Example 325, 4-amino-N-((5-cyano-2-pyridinyl)methyl)-N-(cyclopropylmethyl)-1,3-dihydrofuro[3,4-c]quinoline-8-carboxamide], the IC50 came out at 2280 nM with HCT116 WT cells and 73 nM with HCT116 MTAP null cells.

In the case of `C[C@H](c1ncccn1)N(Cc1ccc(C2CC2)nn1)C(=O)c1ccc2nc(N)c3c(c2c1)COC3` [Example 458, 4-amino-N-((6-cyclopropyl-3-pyridazinyl)methyl)-N-((1R)-1-(2-pyrimidinyl)ethyl)-1,3-dihydrofuro[3,4-c]quinoline-8-carboxamide], the IC50 was 361 nM in the assay with HCT116 WT cells and 26 nM with HCT116 MTAP null cells.

As to `CC(C)CN(Cc1ccc(C(F)(F)F)nn1)C(=O)c1cc2c3c(c(N)nc2cn1)COC3` [Example 670, 4-amino-N-(2-methylpropyl)-N-((6-(trifluoromethyl)-3-pyridazinyl)methyl)-1,3-dihydrofuro[3,4-c][1,7]naphthyridine-8-carboxamide], the values for the IC50 in the assay on HCT116 WT cells and in the assay with HCT116 MTAP null cells were 8020 nM and 170 nM, respectively.

As to `CC(c1ccc(C(F)(F)F)cn1)N(C)C(=O)c1ccc2nc(N)c3c(cnn3C)c2c1` (racemic) [Example 716, 4-amino-N,3-dimethyl-N-((1R)-1-(5-(trifluoromethyl)-2-pyridinyl)ethyl)-3H-pyrazolo[3,4-c]quinoline-8-carboxamide and 4-amino-N,3-dimethyl-N-((1S)-1-(5-(trifluoromethyl)-2-pyridinyl)ethyl)-3H-pyrazolo[3,4-c]quinoline-8-carboxamide], the figures for the IC50 in the assay on HCT116 WT cells and in the assay with HCT116 MTAP null cells were 33300 nM and 917 nM, respectively.

In the case of `CC1OCc2c1c(N)nc1ccc(C(=O)N(Cc3ccc(C(F)(F)F)cn3)Cc3cnc(N)s3)cc21` (stereo not drawn) [Example 918, 4-amino-N-((2-aminothiazol-5-yl)methyl)-3-methyl-N-((5-(trifluoromethyl)pyridin-2-yl)methyl)-1,3-dihydrofuro[3,4-c]quinoline-8-carboxamide], the IC50 is over 1000 nM in the assay with HCT116 WT cells and 54 nM in the assay with HCT116 MTAP null cells.

On to `CCN(C(=O)c1cc2c3c(c(N)nc2cc1F)COC3)[C@H](C)c1ccc(C(F)(F)F)cn1` [Example 762, 4-amino-N-ethyl-7-fluoro-N-((1R)-1-(5-(trifluoromethyl)-2-pyridinyl)ethyl)-1,3-dihydrofuro[3,4-c]quinoline-8-carboxamide], for which the IC50 turned out to be 621 nM in the assay on HCT116 WT cells and 26 nM with HCT116 MTAP null cells.

Regarding `CCN(C(=O)c1ccc2nc(N)c3c(c2c1)CO[C@@H]3C)[C@H](C)c1ccc(C(F)F)cn1` [Example 775, (3R)-4-amino-N-((1R)-1-(5-(difluoromethyl)-2-pyridinyl)ethyl)-N-ethyl-3-methyl-1,3-dihydrofuro[3,4-c]quinoline-8-carboxamide], the values for the IC50 in the assay with HCT116 WT cells and with HCT116 MTAP null cells were 2680 nM and 33 nM, respectively.

As for `CCN(C(=O)c1ccc2nc(N)c3c(c2c1)CO[C@@H]3C)[C@H](C)c1ccc(C(F)(F)F)nn1` [Example 778, (3R)-4-amino-N-ethyl-3-methyl-N-((1R)-1-(6-(trifluoromethyl)-3-pyridazinyl)ethyl)-1,3-dihydrofuro[3,4-c]quinoline-8-carboxamide], the IC50 in the assay on HCT116 WT cells is 2660 nM; in the assay with HCT116 MTAP null cells, 49 nM.

For the compound `Nc1nc2cc(Cl)c(C(=O)N(Cc3ccc(C(F)(F)F)cn3)C34CC(C3)C4)cc2c2c1COC2` [Example 395, 4-amino-N-(bicyclo[1.1.1]pentan-1-yl)-7-chloro-N-((5-(trifluoromethyl)-2-pyridinyl)methyl)-1,3-dihydrofuro[3,4-c]quinoline-8-carboxamide], the IC50 was 535 nM in the assay with HCT116 WT cells and 31 nM in the assay with HCT116 MTAP null cells.

Take `CC(c1ncccn1)N(Cc1ccc(C(F)(F)F)cn1)C(=O)c1ccc2nc(N)c3c(cnn3C)c2c1` (racemic) [Example 618, 4-amino-3-methyl-N-((1R)-1-(2-pyrimidinyl)ethyl)-N-((5-(trifluoromethyl)-2-pyridinyl)methyl)-3H-pyrazolo[3,4-c]quinoline-8-carboxamide and 4-amino-3-methyl-N-((1S)-1-(2-pyrimidinyl)ethyl)-N-((5-(trifluoromethyl)-2-pyridinyl)methyl)-3H-pyrazolo[3,4-c]quinoline-8-carboxamide]: the IC50 with HCT116 WT cells was determined as 264 nM; in the assay with HCT116 MTAP null cells, 33 nM.

In the case of `CC(C)N(Cc1ccc(OC(F)(F)F)cn1)C(=O)c1ccc2nc(N)c3c(c2c1)COC3` [Example 678, 4-amino-N-(2-propanyl)-N-((5-(trifluoromethoxy)-2-pyridinyl)methyl)-1,3-dihydrofuro[3,4-c]quinoline-8-carboxamide], the IC50 with HCT116 WT cells was found to be 1180 nM; in the assay on HCT116 MTAP null cells it was 40 nM.

Take `Cn1ncc2c3cc(C(=O)N(Cc4ccc(C(F)(F)F)nn4)CC4CC4)c(F)cc3nc(N)c21` [Example 731, 4-amino-N-(cyclopropylmethyl)-7-fluoro-3-methyl-N-((6-(trifluoromethyl)-3-pyridazinyl)methyl)-3H-pyrazolo[3,4-c]quinoline-8-carboxamide]: the IC50 with HCT116 WT cells is 2090 nM; with HCT116 MTAP null cells, 47 nM.

Take `CC(C)N(C(=O)c1cc2c3c(c(N)nc2cc1F)COC3)[C@@H](C)c1ccc(C(F)(F)F)cn1` (single isomer, unassigned) [Example 841]: the IC50 in the assay with HCT116 WT cells was determined as 11600 nM; in the assay with HCT116 MTAP null cells it was 613 nM.

For the compound `CN(Cc1ccc(C(F)(F)C(F)(F)F)cc1)C(=O)c1cc2c(cn1)nc(N)c1cnn(C)c12` [Example 562, 4-amino-N,1-dimethyl-N-(4-(pentafluoroethyl)benzyl)-1H-pyrazolo[4,3-c][1,7]naphthyridine-8-carboxamide], the IC50 in the assay with HCT116 WT cells was determined as 3530 nM; with HCT116 MTAP null cells, 86 nM.

Take `C[C@H]1OCc2c1c(N)nc1cnc(C(=O)N(C)Cc3ccc(C(F)(F)F)cn3)cc21` [Example 411, (3R)-4-amino-N,3-dimethyl-N-((5-(trifluoromethyl)-2-pyridinyl)methyl)-1,3-dihydrofuro[3,4-c][1,7]naphthyridine-8-carboxamide]: the half-inhibitory concentration (IC50) in the assay on HCT116 WT cells is 13600 nM; in the assay on HCT116 MTAP null cells it was 181 nM.

Regarding `Nc1nc2cnc(C(=O)N(Cc3ccc(C(F)(F)F)cn3)CC(F)(F)F)cc2c2c1COC2` [Example 486, 4-amino-N-(2,2,2-trifluoroethyl)-N-((5-(trifluoromethyl)-2-pyridinyl)methyl)-1,3-dihydrofuro[3,4-c][1,7]naphthyridine-8-carboxamide], the IC50 turned out to be 17500 nM with HCT116 WT cells and 445 nM with HCT116 MTAP null cells.

Take `C[C@@H]1OCc2c1c(N)nc1cnc(C(=O)N(C)Cc3ccc(C(F)(F)F)nn3)cc21` [Example 319, (3S)-4-amino-N,3-dimethyl-N-((6-(trifluoromethyl)-3-pyridazinyl)methyl)-1,3-dihydrofuro[3,4-c][1,7]naphthyridine-8-carboxamide]: the IC50 in the assay on HCT116 WT cells is over 50000 nM; in the assay with HCT116 MTAP null cells, 27700 nM.

With `C[C@H](c1ccc(C(F)(F)F)cn1)N(C)C(=O)c1cc2c3c(c(N)nc2cn1)COC3` (single isomer, unassigned) [Example 854], the results for the IC50 in the assay on HCT116 WT cells and in the assay on HCT116 MTAP null cells were 3280 nM and 86 nM, respectively.

`COc1ccc(CN(C(=O)c2ccc3nc(N)c4c(c3c2)CCC4)[C@H](C)c2ncccn2)nn1` (single isomer, unassigned) [Example 646]: the IC50 in the assay on HCT116 WT cells is 263 nM. In addition, in the assay on HCT116 MTAP null cells, the IC50 is 19 nM and the “potency of enantiomer relative to the other enantiomer, measured by IC50 in HCT116 MTAP null cell viability assay” value was “more potent”.
